Structures are written as SMILES.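 Dose response: 5 concentrations. Exposure: 48 h. Format: 96-well plates. Endpoint: linear interpolation; highest concentration if not reached. The concentration for 50% growth inhibition is given as GI50. Definition used: TGI = concentration required for complete inhibition of growth.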 Bounds are passed on as bounds.

What all share (assay): DTP human tumour cell line panel, 48 h
Assay [1] deals with OVCAR-3 ovarian.
The test system of assay [2] is SK-MEL-28 melanoma.
The test system of assay [3] is SNB-75 CNS.
Assay [4] has as its system HOP-62 NSCLC.
Assay [5] concerns SW-620 colon.
Assay [6] concerns 786-0 renal.
In assay [7] the test system is SF-268 CNS.
The subject of assay [8] is SK-MEL-5 melanoma.
Assay [9] has as its system KM12 colon.
The subject of assay [10] is T-47D breast.

As for `CN(C)CC(O)c1ccc(Cl)c2ccccc12` (stereo not drawn), the TGI in assay [1] was more than 100 µM; in [2], 36.3 µM; in assay [3], more than 89.1 µM; in assay [4], more than 100 µM; in [5] it was more than 100 µM; in [6], more than 100 µM. Moreover, the TGI is more than 100 µM in assay [7], 31.4 µM in assay [8], more than 100 µM in [9] and 84.4 µM in assay [10].

For the compound `COC1CC(N)(c2ccccc2)C(O)C(C)O1` (stereo not drawn), the TGI in [1], in [2], in assay [3], in assay [4], in [5] and in [6] was more than 100 µM throughout. Moreover, the TGI in [7], in assay [8] and in [10] was more than 100 µM throughout.

As for `CCc1n[nH]c(=O)n1CCCCCCCCCCCCn1c(CC)n[nH]c1=O`, the TGI in [1] is more than 100 µM; in [3], 80.6 µM; in [4], more than 100 µM; in assay [5] it was more than 100 µM; in assay [6], more than 100 µM; in assay [7] it was more than 100 µM. For the same compound, the TGI in [8] was 32.8 µM; in [9] it was more than 100 µM; in assay [10] it was 82.9 µM.

Take `Cc1ccc(Nc2nc3[nH]ccc3c(=O)[nH]2)cc1`: the TGI in assay [1] is more than 100 µM; in assay [3] it was 49.9 µM; in assay [4] it was more than 100 µM; in assay [5] it was more than 100 µM; in assay [6] it was more than 100 µM; in [7], more than 100 µM. For the same compound, the TGI in [8], in assay [9] and in [10] was more than 100 µM each time.

Consider `C=CCn1c(=O)c(C)cn(COCCO)c1=O`, for which the TGI in [1], in [2], in assay [3], in [4], in [5] and in assay [7] was more than 100 µM each time. The TGI in [8], in assay [9] and in assay [10] was more than 100 µM each time.

Turning to `COc1cc2c(c(O)c1O)C(=O)C1CCC(=O)N1C2c1cccc2ccccc12` (stereo not drawn), the TGI in assay [1], in [2], in [3], in assay [4], in assay [5] and in [6] was more than 50 µM each time. Moreover, the TGI in assay [7], in assay [9] and in [10] was more than 50 µM throughout.

Regarding `O=S1(=O)c2ccccc2Oc2ccc(C(/C=N/O)=N/O)cc21`, the total growth inhibition concentration (TGI) was 36.6 µM in assay [1]; more than 100 µM in assay [2]; more than 100 µM in assay [3]; more than 100 µM in assay [4]; more than 100 µM in [6]; more than 100 µM in [7]. Further, the TGI in [9] was more than 100 µM; in [10] it was 35.6 µM.

Take `CCCCN(CCCC)Cc1cc(Nc2ccnc3cc(Cl)ccc23)ccc1O`: the GI50 is 74.7 µM in [1]; 43.1 µM in assay [2]; 2.83 µM in [3]; 2.54 µM in [4]; more than 100 µM in [7]; 8.29 µM in assay [8]. In addition, the GI50 in assay [9] is more than 100 µM; in [10], 35.9 µM. The TGI in assay [1] is more than 100 µM; in assay [2], more than 100 µM; in assay [3] it was 13.6 µM; in assay [4], more than 100 µM; in assay [7], more than 100 µM; in [8] it was more than 100 µM. Moreover, the TGI in assay [9] and in [10] was more than 100 µM in each case.

On to `O=C1[C@H](O)[C@@H]2C(O)O[C@H]3[C@@H]2N1C[C@H]3[Si](c1ccccc1)(c1ccccc1)c1ccccc1` (stereo partly drawn), for which the TGI in assay [1] was more than 100 µM; in assay [2] it was more than 100 µM; in [3], 69.4 µM; in assay [4], more than 100 µM; in assay [5], more than 100 µM; in assay [6], more than 100 µM. Besides, the concentration for total growth inhibition (TGI) in assay [7], in [8], in assay [9] and in assay [10] was more than 100 µM each time.

As to `OC1[C@@H]2[C@@H](O)CCCN2C[C@@H](O)[C@H]1O` (stereo partly drawn), the TGI in assay [1], in [2], in [3], in assay [4], in assay [5] and in assay [6] was more than 100 µM each time. Further, the TGI in assay [7], in assay [8], in assay [9] and in [10] was more than 100 µM throughout.

`[N-]=[N+]=Nc1c(Cc2ccccc2)c(Cl)nc2ccccc12`: the TGI in assay [1] is 38.4 µM; in assay [2] it was more than 100 µM; in assay [3] it was 93.3 µM; in assay [4] it was 51 µM; in assay [5] it was more than 100 µM; in assay [6], more than 100 µM. Further, the TGI was more than 100 µM in assay [7], 30 µM in [8], 61.2 µM in [9] and more than 100 µM in [10].

In the case of `COC(=O)C1(NC(=O)C(CC(=O)OCc2ccccc2)NC(=O)OCc2ccccc2)CCCCCC1` (stereo not drawn), the TGI in assay [1] was more than 100 µM; in assay [2], more than 100 µM; in [3] it was more than 100 µM; in assay [4], 67.5 µM; in assay [5], more than 100 µM; in assay [6], more than 100 µM. For the same compound, the TGI was more than 100 µM in [7], 28.8 µM in assay [8], more than 100 µM in assay [9] and more than 100 µM in assay [10].

Consider `Nc1n(CC(=O)c2ccccc2)nc2sc(-c3ccccc3)n[n+]12`, for which the TGI is 38.9 µM in assay [1]; more than 100 µM in assay [2]; more than 100 µM in [3]; 52.5 µM in [4]; 36.6 µM in assay [5]; 48.4 µM in assay [6]. Besides, the TGI is 62.5 µM in assay [7], 22 µM in [8], 39.3 µM in [9] and more than 100 µM in assay [10].

Consider `COc1cc(C2c3c(ccc4ccccc34)C(=O)C3CCC(=O)N32)cc(OC)c1OC` (stereo not drawn), for which the TGI in assay [1], in assay [2], in assay [3], in [4], in [5] and in assay [6] was more than 50 µM throughout. The TGI in assay [7], in [9] and in [10] was more than 50 µM throughout.

`COc1cccc(N2C(=O)CSC2c2cccc(Oc3ccccc3)c2)c1` (stereo not drawn): the TGI in assay [1] was 92.9 µM; in assay [2] it was more than 100 µM; in assay [3], 39.5 µM; in assay [4], more than 100 µM; in assay [5], more than 100 µM; in assay [6], 24 µM. For the same compound, the TGI in assay [7] is 42.9 µM; in [8], 16.9 µM; in [9] it was more than 100 µM; in assay [10], more than 100 µM.

Turning to `O=C(Nc1ccccc1)N(C1=NCC(CI)S1)c1ccc(F)c(F)c1` (stereo not drawn), the total growth inhibition concentration (TGI) in assay [1] is more than 100 µM; in assay [2], 38.4 µM; in [3], 55.6 µM; in assay [4] it was more than 100 µM; in assay [5], more than 100 µM; in assay [6], more than 100 µM. For the same compound, the TGI in assay [7] is more than 100 µM; in [8] it was 37.2 µM; in assay [9], more than 100 µM; in assay [10] it was more than 100 µM.

Turning to `Cn1c(=O)c2c(nc3n(CC(O)CCl)c(=O)ccn23)n(C)c1=O` (stereo not drawn), the TGI in [1], in assay [2], in [3], in assay [4], in assay [5] and in [6] was more than 100 µM in each case. Besides, the TGI in assay [7], in [8], in assay [9] and in assay [10] was more than 100 µM throughout.

`CC(=O)NC1C(OCc2ccccc2)OC(CO)C(O)C1OCC(=O)N1CCCC1C(=O)N[C@@H](CCC(=O)NCCCCNc1c2ccccc2nc2cccc([N+](=O)[O-])c12)C(N)=O` (stereo partly drawn): the TGI in assay [1] was 61.9 µM; in assay [2], more than 100 µM; in assay [3] it was 65.8 µM; in assay [4] it was more than 100 µM; in assay [5], 65.7 µM; in [6] it was more than 100 µM. For the same compound, the TGI in assay [7], in [9] and in assay [10] was more than 100 µM in each case.

On to `Fc1ccc(C(OCCN2CCN(CCCc3ccccc3)CC2)c2ccc(F)cc2)cc1`, for which the TGI in [1] is 15.9 µM; in [2] it was 23.6 µM; in assay [3], 16.4 µM; in assay [4] it was 17.7 µM; in assay [5], more than 50.6 µM; in assay [7] it was 14.6 µM. Moreover, the TGI in assay [8] is 10.1 µM; in assay [9], 17.1 µM; in [10], 19.3 µM.

As for `CN1CCC(CNc2cc(C3(C(=O)Nc4cc(C(=O)Nc5ccc(Cl)c(C(F)(F)F)c5)ccc4F)CC3)ncn2)CC1`, the GI50 in assay [1] is 2.57 µM; in [3], 0.955 µM; in assay [4] it was 2 µM; in assay [5], 2.54 µM; in [7], 2.08 µM; in [9], 2.58 µM. In addition, the GI50 in assay [10] was 4.14 µM. Moreover, the TGI in assay [1] came out at 8.44 µM; in assay [3], 2.86 µM; in assay [4] it was 3.97 µM; in assay [5], 5.32 µM; in [7], 5.5 µM; in assay [9] it was 6.91 µM. The compound further returned a TGI in [10] of 26.8 µM.

`O=C(/C=C(/C=C/c1ccc2[nH]ccc2c1)OB(F)F)/C=C/c1ccc2[nH]ccc2c1`: the GI50 in [3] is 2.72 µM; in assay [4], 3.38 µM; in assay [7], 1.51 µM; in [8] it was 2.98 µM; in assay [10], 1.99 µM. Further, the total growth inhibition concentration (TGI) was 15.7 µM in [3]; more than 100 µM in assay [4]; 6.41 µM in [7]; 13.3 µM in assay [8]; more than 100 µM in [10].

On to `CC(=O)Nc1ccc2c(C)c3c(nc2n1)[nH]c1ccccc13`, for which the TGI in [1] is 65.5 µM; in assay [3], 69.2 µM; in assay [4] it was more than 100 µM; in assay [5] it was more than 100 µM; in assay [6], more than 100 µM; in [7] it was more than 100 µM. Further, the TGI in assay [8] worked out at 28 µM; in assay [9], 47.6 µM; in assay [10] it was 55.5 µM.

For the compound `c1ncn(C23C4C5C6C4C2C6C53)n1` (stereo not drawn), the TGI in [2], in assay [3], in [4], in [5], in assay [6] and in [7] was more than 100 µM throughout. Further, the TGI in [8], in assay [9] and in assay [10] was more than 100 µM in each case.

In the case of `Cc1ccc2c(c1)-c1nc(N)c(C#N)c(-c3ccc(Cl)cc3)c1CCS2(=O)=O`, the concentration for total growth inhibition (TGI) in assay [2] is more than 100 µM; in assay [3], more than 100 µM; in assay [5] it was more than 100 µM; in [6], more than 100 µM; in assay [7], more than 100 µM; in assay [8] it was 40.2 µM. Besides, the TGI in [9] and in assay [10] was more than 100 µM in each case.

For `C=CCSC1=N/C(=C\c2ccc(Cl)cc2)C(=O)N1CC=C`, the TGI in [1], in [2], in [4], in assay [5], in assay [6] and in [7] was more than 100 µM in each case. Also, the TGI in assay [8] came out at 31 µM; in assay [9], 97.7 µM; in assay [10], 63.5 µM.

`Cc1ccc2nc(SCC(=O)N=Nc3c(O)[nH]c4ccccc34)n(-c3ccccc3)c(=O)c2c1`: the TGI in [1] amounted to 41.9 µM; in [2] it was 31.2 µM; in assay [4] it was 24.6 µM; in [5] it was 61.4 µM; in assay [6] it was 29.5 µM; in assay [7], 26.6 µM. For the same compound, the TGI was determined as 29.1 µM in assay [8], 27.9 µM in assay [9] and 34 µM in [10].

Regarding `CN(C)CCNc1ccc2c(=O)n(CCN(C)C)c(=O)n3c4ccc(O)cc4c(=O)c1c23`, the TGI in [1] worked out at 1.29 µM; in [2], 0.863 µM; in [3], 0.305 µM; in [5], 0.67 µM; in assay [6] it was 0.156 µM; in [7] it was 0.416 µM. For the same compound, the values for the TGI in assay [8], in assay [9] and in assay [10] were 0.211 µM, 2.15 µM and 0.717 µM, respectively.

What is called TGI is the concentration at which net growth stops. The low end stands for greater sensitivity of the cells, the high end for lower sensitivity of the cells. The GI50 is the concentration that inhibits growth by half.

For the origin of these results see PubChem BioAssay (NCI).
